Measurements taken from US12371454B2, “Cyclic peptide compound having Kras inhibitory action” (priority 2019, dated 2025).
Starred links: 1 amine or outer side, 2 acyl side, 3 side chain; linkers in the order of their positions; H or OH if unused. Positions of bridges follow the written chain, without caps; N, C: chain ends. Non-standard residues stand in square brackets, D forms with d. Residues, ends and D or L forms follow the SMILES beside them. *: point of attachment. hPhe(3-Cl-4-CF3) = N[C@@H](CCc1ccc(C(F)(F)F)c(Cl)c1)C(=O)O; NMePhe(4-Me) = CN[C@@H](Cc1ccc(C)cc1)C(=O)O; NMePhe(4-F) = CN[C@@H](Cc1ccc(F)cc1)C(=O)O; NMedβ3hAla = C[C@H](CC(=O)[*:2])N(C)[*:1]; NMeNva(5,5-F2) = CN[C@@H](CCC(F)F)C(=O)O; NMeGly(cPent) = CN[C@H](C(=O)O)C1CCCC1; NMeCha = CN[C@@H](CC1CCCCC1)C(=O)O; NMeChg = CN[C@H](C(=O)O)C1CCCCC1; NMeF = CN[C@@H](Cc1ccccc1)C(=O)O; NMeD = CN[C@@H](CC(=O)O)C(=O)O; dNMeD = CN[C@H](CC(=O)O)C(=O)O; NMeL = CN[C@@H](CC(C)C)C(=O)O; Cba = N[C@@H](CC1CCC1)C(=O)O; NMeV = CN[C@H](C(=O)O)C(C)C; d(β3hA) = C[C@@H](N)CC(=O)O; NMeS = CN[C@@H](CO)C(=O)O; Morpholide = C1CN(*)CCO1; NMeA = CN[C@@H](C)C(=O)O; Piperidide = C1CCN(*)CC1; Pyrrolidide = C1CCN(*)C1; dNMeA = CN[C@H](C)C(=O)O; Ac5c = NC1(C(=O)O)CCCC1; Aze = O=C(O)[C@@H]1CCN1; Abu = CC[C@H](N)C(=O)O; Sar = CNCC(=O)O; Propyl = CCC*

Molecular target: T1, Kras and SOS1 (biotin-tagged human Kras loaded with GDP, His-tagged human SOS1) (Homo sapiens, UniProt P01116, G12D)
T1 construct: made in house; host or cells: E. coli (stated for Kras only)
T1 sequence (P01116 1-188 isoform P01116-2 G12D): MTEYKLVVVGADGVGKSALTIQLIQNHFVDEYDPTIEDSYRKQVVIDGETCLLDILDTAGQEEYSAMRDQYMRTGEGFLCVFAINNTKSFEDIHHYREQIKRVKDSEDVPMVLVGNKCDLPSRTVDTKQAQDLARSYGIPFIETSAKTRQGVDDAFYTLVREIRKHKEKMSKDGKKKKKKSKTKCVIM
Test: Protein-protein interaction inhibition between Kras and SOS1 (KrasGl2D-SOS PPI) using AlphaScreen
Type: binding
Conditions: AlphaScreen; biotin-tagged human Kras loaded with GDP, His-tagged human SOS1; read-out: KRAS G12D-SOS PPI IC50
Procedure, shortened: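 Kras was produced in E. coli, purified, then loaded with GDP. It was paired via streptavidin acceptor beads with His-SOS1 held on nickel donor beads, and proximity signal at 520-620 nm was read after 680 nm illumination.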

| SMILES | IC50 [nM] |
| --- | --- |
| CC[C@H](C)[C@@H]1NC(=O)[C@H](C)N(C)C(=O)C[C@@H](C(=O)N2CCCCC2)N(C)C(=O)[C@H](C(C)C)N(C)C(=O)C2(CCCC2)NC(=O)[C@@H]2CCCN2C(=O)[C@H](CCc2ccc(C(F)(F)F)c(Cl)c2)NC(=O)CN(C)C(=O)[C@H](Cc2ccccc2)N(C)C(=O)[C@@H]2CCCN2C(=O)CN(C)C1=O [Compound 1753] ([NMeA]I[Sar]P[NMeF][Sar][hPhe(3-Cl-4-CF3)]P[Ac5c][NMeV][NMeD]-Piperidide; lactam N-11) | 2.5 |
| CC(C)C[C@@H]1NC(=O)[C@H](CC(C)C)N(C)C(=O)C[C@@H](C(=O)N2CCCCC2)N(C)C(=O)[C@H](C(C)C)N(C)C(=O)C2(CCCC2)NC(=O)[C@@H]2CCCN2C(=O)[C@H](CCc2ccc(C(F)(F)F)c(Cl)c2)NC(=O)CN(C)C(=O)[C@H](CC2CCCCC2)N(C)C(=O)[C@@H]2CCN2C(=O)[C@H](C)N(C)C1=O [Compound 1754] ([NMeL]L[NMeA][Aze][NMeCha][Sar][hPhe(3-Cl-4-CF3)]P[Ac5c][NMeV][NMeD]-Piperidide; lactam N-11) | 67 |
| CC[C@H](C)[C@@H]1NC(=O)[C@H](C)N(C)C(=O)C[C@@H](C(=O)N2CCCCC2)N(C)C(=O)[C@H](C(C)C)N(C)C(=O)C2(CCCC2)NC(=O)[C@@H]2CCCN2C(=O)[C@H](CCc2ccc(C(F)(F)F)c(Cl)c2)NC(=O)[C@@H](C)N(C)C(=O)[C@H](Cc2ccc(F)cc2)N(C)C(=O)CN(C)C(=O)CN(C)C1=O [Compound 1755] ([NMeA]I[Sar][Sar][NMePhe(4-F)][dNMeA][hPhe(3-Cl-4-CF3)]P[Ac5c][NMeV][NMeD]-Piperidide; lactam N-11) | 7.9 |
| CC[C@H](C)[C@@H]1NC(=O)[C@H](CC(C)C)N(C)C(=O)C[C@@H](C(=O)N(C)C)N(C)C(=O)[C@H](C2CCCC2)N(C)C(=O)C2(CCCC2)NC(=O)[C@@H]2CCCN2C(=O)[C@H](CCc2ccc(C(F)(F)F)c(Cl)c2)NC(=O)CN(C)C(=O)[C@H](Cc2ccc(C)cc2)N(C)C(=O)[C@@H]2CCN2C(=O)[C@H](C)N(C)C1=O [Compound 1756] ([NMeL]I[NMeA][Aze][NMePhe(4-Me)][Sar][hPhe(3-Cl-4-CF3)]P[Ac5c][NMeGly(cPent)][NMeD]-NMe2; lactam N-11) | 0.54 |
| CC(C)C[C@H]1C(=O)N[C@@H](CC2CCC2)C(=O)N(C)CC(=O)N(C)CC(=O)N(C)[C@@H](CC2CCCCC2)C(=O)N(C)CC(=O)N[C@@H](CCc2ccc(C(F)(F)F)c(Cl)c2)C(=O)N2CCC[C@H]2C(=O)NC2(CCCC2)C(=O)N(C)[C@@H](C2CCCCC2)C(=O)N(C)[C@H](C(=O)N2CCCCC2)CC(=O)N1C [Compound 1759] ([NMeL][Cba][Sar][Sar][NMeCha][Sar][hPhe(3-Cl-4-CF3)]P[Ac5c][NMeChg][NMeD]-Piperidide; lactam N-11) | 2.7 |
| CC(C)C[C@H]1C(=O)N[C@@H](CO)C(=O)N(C)[C@@H](C)C(=O)N2CC[C@H]2C(=O)N(C)[C@@H](CC2CCCCC2)C(=O)N(C)CC(=O)N[C@@H](CCc2ccc(C(F)(F)F)c(Cl)c2)C(=O)N2CCC[C@H]2C(=O)NC2(CCCC2)C(=O)N(C)[C@@H](C(C)C)C(=O)N(C)[C@H](C(=O)N2CCCCC2)CC(=O)N1C [Compound 1768] ([NMeL]S[NMeA][Aze][NMeCha][Sar][hPhe(3-Cl-4-CF3)]P[Ac5c][NMeV][NMeD]-Piperidide; lactam N-11) | 140 |
| CCCOC[C@H]1C(=O)N(C)[C@H](C(=O)N2CCCCC2)CC(=O)N(C)[C@@H](CC(C)C)C(=O)N[C@@H]([C@@H](C)CC)C(=O)N(C)CC(=O)N(C)CC(=O)N(C)[C@@H](CC2CCCCC2)C(=O)N(C)CC(=O)N[C@@H](CCc2ccc(C(F)(F)F)c(Cl)c2)C(=O)N2CCC[C@H]2C(=O)NC2(CCCC2)C(=O)N1C [Compound 1771] ([NMeL]I[Sar][Sar][NMeCha][Sar][hPhe(3-Cl-4-CF3)]P[Ac5c][NMeS](Propyl)[NMeD]-Piperidide; lactam N-11) | 78 |
| CC[C@@H]1NC(=O)[C@H](CC(C)C)N(C)C(=O)C[C@@H](C(=O)N2CCCCC2)N(C)C(=O)[C@H](C2CCCCC2)N(C)C(=O)C2(CCCC2)NC(=O)[C@@H]2CCCN2C(=O)[C@H](CCc2ccc(C(F)(F)F)c(Cl)c2)NC(=O)CN(C)C(=O)[C@H](CC2CCCCC2)N(C)C(=O)CN(C)C(=O)CN(C)C1=O [Compound 1775] ([NMeL][Abu][Sar][Sar][NMeCha][Sar][hPhe(3-Cl-4-CF3)]P[Ac5c][NMeChg][NMeD]-Piperidide; lactam N-11) | 4 |
| CC[C@H](C)[C@@H]1NC(=O)[C@H](C)N(C)C(=O)C[C@@H](C)NC(=O)[C@H](C(C)C)N(C)C(=O)C2(CCCC2)NC(=O)[C@@H]2CCCN2C(=O)[C@H](CCc2ccc(C(F)(F)F)c(Cl)c2)NC(=O)CN(C)C(=O)[C@H](Cc2ccccc2)N(C)C(=O)[C@@H]2CCCN2C(=O)CN(C)C1=O [Compound 1778] (cyclo([Ac5c][NMeV][d(β3hA)][NMeA]I[Sar]P[NMeF][Sar][hPhe(3-Cl-4-CF3)]P)) | 7.3 |
| CC[C@H](C)[C@@H]1NC(=O)[C@H](CC(C)C)N(C)C(=O)C[C@@H](C(=O)N(C)C)N(C)C(=O)[C@H](C2CCCC2)N(C)C(=O)C2(CCCC2)NC(=O)[C@@H]2CCCN2C(=O)[C@H](CCc2ccc(C(F)(F)F)c(Cl)c2)NC(=O)CN(C)C(=O)[C@H](Cc2ccc(C)cc2)N(C)C(=O)CN(C)C(=O)CN(C)C1=O [Compound 1779] ([NMeL]I[Sar][Sar][NMePhe(4-Me)][Sar][hPhe(3-Cl-4-CF3)]P[Ac5c][NMeGly(cPent)][NMeD]-NMe2; lactam N-11) | 0.52 |
| CC[C@H](C)[C@@H]1NC(=O)[C@H](CC(C)C)N(C)C(=O)C[C@H](C(=O)N2CCCC2)N(C)C(=O)[C@H](C2CCCCC2)N(C)C(=O)C2(CCCC2)NC(=O)[C@@H]2CCCN2C(=O)[C@H](CCc2ccc(C(F)(F)F)c(Cl)c2)NC(=O)CN(C)C(=O)[C@H](CC2CCCCC2)N(C)C(=O)CN(C)C(=O)CN(C)C1=O [Compound 1781] ([NMeL]I[Sar][Sar][NMeCha][Sar][hPhe(3-Cl-4-CF3)]P[Ac5c][NMeChg][dNMeD]-Pyrrolidide; lactam N-11) | 49 |
| CC[C@H](C)[C@@H]1NC(=O)[C@H](CC(C)C)N(C)C(=O)C[C@@H](C(=O)N2CCCCC2)N(C)C(=O)[C@H](CCC(F)F)N(C)C(=O)C2(CCCC2)NC(=O)[C@@H]2CCCN2C(=O)[C@H](CCc2ccc(C(F)(F)F)c(Cl)c2)NC(=O)CN(C)C(=O)[C@H](CC2CCCCC2)N(C)C(=O)CN(C)C(=O)CN(C)C1=O [Compound 1782] ([NMeL]I[Sar][Sar][NMeCha][Sar][hPhe(3-Cl-4-CF3)]P[Ac5c][NMeNva(5,5-F2)][NMeD]-Piperidide; lactam N-11) | 2.2 |
| CC[C@H](C)[C@@H]1NC(=O)[C@H](C)N(C)C(=O)C[C@@H](C(=O)N2CCOCC2)N(C)C(=O)[C@H](C(C)C)N(C)C(=O)C2(CCCC2)NC(=O)[C@@H]2CCCN2C(=O)[C@H](CCc2ccc(C(F)(F)F)c(Cl)c2)NC(=O)[C@@H](C)N(C)C(=O)[C@H](CC2CCCCC2)N(C)C(=O)[C@@H]2CCCN2C(=O)CN(C)C1=O [Compound 1788] ([NMeA]I[Sar]P[NMeCha][dNMeA][hPhe(3-Cl-4-CF3)]P[Ac5c][NMeV][NMeD]-Morpholide; lactam N-11) | 4.3 |
| CC[C@H](C)[C@@H]1NC(=O)[C@H](CC(C)C)N(C)C(=O)C[C@H](C(=O)N2CCCC2)N(C)C(=O)[C@H](C2CCCC2)N(C)C(=O)C2(CCCC2)NC(=O)[C@@H]2CCCN2C(=O)[C@H](CCc2ccc(C(F)(F)F)c(Cl)c2)NC(=O)CN(C)C(=O)[C@H](CC2CCCCC2)N(C)C(=O)CN(C)C(=O)CN(C)C1=O [Compound 1794] ([NMeL]I[Sar][Sar][NMeCha][Sar][hPhe(3-Cl-4-CF3)]P[Ac5c][NMeGly(cPent)][dNMeD]-Pyrrolidide; lactam N-11) | 40 |
| CC(C)C[C@H]1C(=O)N[C@@H](CO)C(=O)N(C)CC(=O)N(C)CC(=O)N(C)[C@@H](CC2CCCCC2)C(=O)N(C)CC(=O)N[C@@H](CCc2ccc(C(F)(F)F)c(Cl)c2)C(=O)N2CCC[C@H]2C(=O)NC2(CCCC2)C(=O)N(C)[C@@H](C2CCCCC2)C(=O)N(C)[C@H](C(=O)N2CCCCC2)CC(=O)N1C [Compound 1799] ([NMeL]S[Sar][Sar][NMeCha][Sar][hPhe(3-Cl-4-CF3)]P[Ac5c][NMeChg][NMeD]-Piperidide; lactam N-11) | 15 |
| CC(C)C[C@H]1C(=O)N[C@@H](C)C(=O)N(C)CC(=O)N(C)CC(=O)N(C)[C@@H](CC2CCCCC2)C(=O)N(C)CC(=O)N[C@@H](CCc2ccc(C(F)(F)F)c(Cl)c2)C(=O)N2CCC[C@H]2C(=O)NC2(CCCC2)C(=O)N(C)[C@@H](C2CCCCC2)C(=O)N(C)[C@H](C(=O)N2CCCCC2)CC(=O)N1C [Compound 1802] ([NMeL]A[Sar][Sar][NMeCha][Sar][hPhe(3-Cl-4-CF3)]P[Ac5c][NMeChg][NMeD]-Piperidide; lactam N-11) | 21 |
| CC[C@H](C)[C@@H]1NC(=O)[C@H](C)N(C)C(=O)C[C@@H](C)N(C)C(=O)[C@H](C2CCCCC2)N(C)C(=O)C2(CCCC2)NC(=O)[C@@H]2CCCN2C(=O)[C@H](CCc2ccc(C(F)(F)F)c(Cl)c2)NC(=O)CN(C)C(=O)[C@H](CC2CCCCC2)N(C)C(=O)CN(C)C(=O)CN(C)C1=O [Compound 1808] (cyclo([Ac5c][NMeChg][NMedβ3hAla][NMeA]I[Sar][Sar][NMeCha][Sar][hPhe(3-Cl-4-CF3)]P)) | 47 |
| CC[C@H](C)[C@@H]1NC(=O)[C@H](CC(C)C)N(C)C(=O)C[C@@H](C)N(C)C(=O)[C@H](C2CCCCC2)N(C)C(=O)C2(CCCC2)NC(=O)[C@@H]2CCCN2C(=O)[C@H](CCc2ccc(C(F)(F)F)c(Cl)c2)NC(=O)CN(C)C(=O)[C@H](CC2CCCCC2)N(C)C(=O)[C@@H]2CCN2C(=O)[C@H](C)N(C)C1=O [Compound 1813] (cyclo([Ac5c][NMeChg][NMedβ3hAla][NMeL]I[NMeA][Aze][NMeCha][Sar][hPhe(3-Cl-4-CF3)]P)) | 36 |
